The test system of assay [1] is MCF10A expressing inducible ErbB2 receptor. Description: Cell traction force measurement from crossbow micropattern shortening, ErbB2 inducible cells. Type of assay: cell-based, human. Particulars: ErbB2 receptors activated with ligand, 1 μM, 48 hr before measurement, FIG. 5C. The text has this:
When actin cables have an unpredictable spatial distribution, a given deformation cannot be directly assigned to a defined force magnitude. Indeed, forces applied on adjacent adhesion sites both affect local deformations, due to the continuous nature of the substrate. Each deformation results from local and distant forces. So the calculation of the force field is highly dependent on the spatial distribution of force application sites and the relationship between deformation and forces varies from one cell to the other. The inventors hypothesized that in cells developing a reproducible architecture and a controlled pattern of force application, a given local deformation could be assigned to a defined value of the contractile force. […] When the deformation was measured along the shortest, and therefore most contracted, cell axis, the correlation was improved (FIG. 4C). […] On the crossbow, a single image acquisition was sufficient to measure the bar length and read the corresponding average cell traction force using the calibration curve (FIG. 5F). […]
The culture of MCF10A cells and the generation of ΔCK2β cell line were described previously (Deshiere et al (2008) Mol Cell Biochem 316(1-2):107-113). […] Substrate relaxation was assessed by detaching cells with trypsin. […]

For a further assay, the system named is MCF10A cells. Nature of the assay: Cell traction force measurement from crossbow micropattern bar shortening on PAA. The class given is cell-based, human. Here is the method:
Non-tumorigenic human epithelial cells from the mammary gland, MCF10A, were plated on the micropatterned PAA substrates. Cells specifically attached to the fibronectin coated micropatterns since non-exposed PAA regions prevented protein adsorption (FIG. 2D). The effect of micropattern geometry on cell traction forces orientation was tested on various shapes: disc, pacman and crossbow (FIG. 3A). Spread cells exerted traction forces on the micropattern that could be measured by looking at the displacement of fluorescent beads embedded in the PAA gel (see FIG. 3B and Material and Methods). Particle Image Velocimetry followed by individual particle tracking were used to measure bead displacements ((Marganski et al (2003) Methods Enzymol 361:197-211; Sabass et al (2008) Biophys J 94(1):207-220). Force fields were calculated from the bead displacement fields by using the Fourier transform traction cytometry ((Sabass et al, supra; Butler et al (2002) Am J Physiol Cell Physiol 282(3):C595-605). Force fields exerted by individual cells were overlaid and averaged to quantify their reproducibility (FIG. 3C, D). On homogeneously coated regions cells developed forces that were randomly distributed from one cell to the other. In cells constrained on disc shaped micropatterns, forces were still randomly oriented but their magnitudes were lowered due to reduced cell spreading. In cells constrained on pacman shaped micropatterns, forces distribution was geometrically biased due to enhanced cell contraction above non adhesive regions. […] Importantly, most of the traction forces were reproducibly oriented upward, along the straight adhesive bar on the extremity of which the inventors measured the highest pressure (FIG. 3D). […]
When actin cables have an unpredictable spatial distribution, a given deformation cannot be directly assigned to a defined force magnitude. […] When the deformation was measured along the shortest, and therefore most contracted, cell axis, the correlation was improved (FIG. 4C). […]

These results are taken from patent publication US20140024041A1, “SOFT SUBSTRATE FOR CELL CULTURE AND PROCESS FOR PREPARING THE SAME” (COMMISSARIAT A L'ENERGIE ATOMIQUE ET AUX ENERGIES …, priority 2011, published 2014).

For the compound `CCC(C)(C)C(=O)C(=O)N1CCCC[C@H]1C(=O)O[C@H](CCc1ccc(OC)c(OC)c1)c1cccc(OCC(=O)NCCNC(=O)COc2cccc([C@@H](CCc3ccc(OC)c(OC)c3)OC(=O)[C@@H]3CCCCN3C(=O)C(=O)C(C)(C)CC)c2)c1` [AP 1510], the “level of cell contraction vs WT cells” value in assay [1] is on record as “no significant changes”.
With “TGFb1: known to induce epithelial to mesenchymal transition; from R&D systems”, the “level of cell contraction vs WT cells (crossbow shortening)” value in the assay on MCF10A cells (2 ng/mL for 2 days before plating, FIG. 5C) is reported as “significantly higher level of cell contraction”.
Regarding `Cc1ccc2c(c1)C(=O)C1(O)CCN(c3ccccc3)C1=N2` (stereo not shown) [Blebbistatin], the “force magnitude decrease over time” value in the assay on MCF10A cells (50 μM, single cell, FIG. 5B) is “follows a single exponential decay”. In the assay on MCF10A cells (increasing dose, crossbow bar length, FIG. 5A), the “force inhibition profile in response to increasing dose” value is listed as “matched the myosin II inhibition profile”.
